Source: patent publication US9072717B2, “Cosmetic compositions containing alpha glucosidase inhibitors and methods of use” (ELC Management LLC, priority 2007, dated 2015)

Molecular target: T1, α-glucosidase—Saccharomyces cerevisiae recombinant (Saccharomyces cerevisiae, UniProt P53341)
T1 construct: purchased Sigma G0660
Assay: alpha glucosidase inhibitory activity assay (release of p-nitrophenol from p-nitrophenyl-α-D-glucoside)
Format: biochemical
Conditions: end concentration in the well 0.8 mM; 'should cause about 50% inhibition'
Procedure: [drawing 1] wherein the α-glucosidase activity is measured by the release of p-nitrophenol, and as further set forth in Example 1.
Materials were tested for alpha glucosidase inhibitory activity as follows:
Materials: Standard laboratory equipment, 96 well half area plates with UV transparent bottom (Costar, 3679), 8 channel multi pipette (20 to 200 μl), and spectrophotometer, Spectra Max Plus (Molecular Devices).
Reagents: • (a) Distilled water • (b) Potassium dihydrogen phosphate • (c) Dimethylsulfoxide (Acros, 12779) • (d) α-glucosidase—Saccharomyces cerevisiae recombinant (min. 125 U/mg protein) (Sigma, G0660) • (e) p-nitrophenol-α-D-glucopyranoside (Sigma, N1377) • (f) Australine hydrochloride, castanospermum australe (Calbiochem, #189422) (reference inhibitor)
60 μl of reference inhibitor is needed per well)
Stock solution of the test sample is prepared using 142 mM potassium phosphate buffer (solubility of test sample can be improved using DMSO/potassium phosphate mixtures. The end concentration of DMSO should not exceed 1% v/v which corresponds to 1.66% DMSO in the sample stock solution. […]
Pipette with 8 channel multi-pipette 20 μl of the enzyme and mix well. […] The absorbance was measured at […].
For each concentration of potential inhibitor, the initial reaction velocity is calculated, being the initial slope of the absorbance vs. time data. […]

T1 sequence (P53341 whole entry): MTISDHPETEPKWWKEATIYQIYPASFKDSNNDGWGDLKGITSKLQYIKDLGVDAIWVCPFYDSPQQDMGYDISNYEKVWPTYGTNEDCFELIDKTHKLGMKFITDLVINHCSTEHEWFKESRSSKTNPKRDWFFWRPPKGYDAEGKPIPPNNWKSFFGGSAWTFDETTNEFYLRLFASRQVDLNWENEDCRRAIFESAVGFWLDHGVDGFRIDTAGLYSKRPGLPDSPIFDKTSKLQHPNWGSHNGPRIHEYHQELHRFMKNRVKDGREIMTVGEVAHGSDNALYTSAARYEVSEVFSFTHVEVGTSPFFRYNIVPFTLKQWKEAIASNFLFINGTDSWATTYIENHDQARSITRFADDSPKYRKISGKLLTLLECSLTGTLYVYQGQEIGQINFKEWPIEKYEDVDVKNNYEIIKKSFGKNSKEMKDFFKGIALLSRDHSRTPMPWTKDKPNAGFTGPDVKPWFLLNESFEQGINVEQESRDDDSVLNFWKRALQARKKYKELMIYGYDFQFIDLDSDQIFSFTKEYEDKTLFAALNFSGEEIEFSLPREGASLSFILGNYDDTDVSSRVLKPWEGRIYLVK

Which “inhibition in the well (reference inhibitor)” value does the source give for `Cl.OC[C@@H]1[C@@H](O)[C@H](O)[C@H]2[C@@H](O)CCN21` [Australine HCl, Australine hydrochloride] here?
The value was “about 50%”.
